# Laboratory results: PMC9655874, “Analysis of Volatile Secondary Metabolites in Ocimum basilicum Cell Suspensions: Inhibition, In Silico Molecular Docking, and an ADMET Analysis against Proteolytic Enzymes of Rhynchophorus ferrugineus” (Plants, 2022)
# Test system: R. ferrugineus adults
# Test: whole plant or invertebrate
# Format: in vivo
# Details: Rhynchophorus ferrugineus, read-out: LC50 (µg/mL) 95% CF
# Experimental: (§1) Cells were suspended in the methanolic extract at serially increasing concentrations for 40 days. To dilute the compounds, TritonX-100 (0.1%) was added to acetone after the chemicals were dissolved. Adults or larvae of R. ferrugineus were purchased. They were then cultured using long lengths of sugar cane stem. The extracts’ anti-larvae action was assessed by applying topically to larvae and keeping them at 4–5 °C for 5 min. Utilizing a manually controlled micro-applicator, each larva had extract injected into its dorsum in three separate 10 µL doses using a 50-ll micro-syringe from Hertfordshire, UK’s Burkard Manufacturing Co., Ltd. (MS-N50; Shizuoka, Japan’s Ito Corp.). Five larvae in a box with three replications were fed on portions of long sugarcane stem measuring 10 cm. […] The sugarcane stem’s ten-centimeter-long portions cut into equal longitudinal halves were used to measure the antifeedant activity against adults. Long sections of sugarcane stem with a surface area of approximately 32.2 cm^2 were dried in air at room temperature, assuming a dipping time of 10 s and an initial serial concentration of (10 mL). Each treated object remained in a plastic container. Each box included an additional pair (male and female). Each therapy was administered ten times. In total, 24-, 48-, 72-, and 96-h feeding observations were assessed.
# (§2) Statistics and probit analysis were performed using SPSS 25.0, as mentioned by Finney. To sum up, all numerical predictions of toxicity variables and findings were presented as the mean ± SE. We regressed mortality and translated the resulting dosage to an LC50 value (µg/mL). […] Enzyme activity data were analyzed using an ANOVA. Means were separated using the SNK (Student–Newman–Keuls) test, and deviations at the p ˂ 0.05 level were considered noteworthy.
row,Structure (SMILES),LC50
1,"CC12CCC(CC1)C(C)(C)O2 [1,8-cineole]",1430 µg/mL
2,C=C/C(C)=C/CC=C(C)C [(E)-β-ocimene],3010 µg/mL
3,C=CCc1ccc(OC)cc1 [estragole],3590 µg/mL
4,C=CCc1ccc(O)c(OC)c1 [eugenol],1460 µg/mL

# Test system: cysteine protease of R. ferrugineus midgut
# Test: Cysteine protease activity in midgut of treated larvae (in vivo)
# Set-up: species or system Rhynchophorus ferrugineus
# Details: larvae treated 24 h, midgut preparation
# Experimental: (§3) Utilizing the substrate N-benzoyl-Phe-Val-Arg-p-nitroanilide hydrochloride and certain modifications, the cysteine proteinases of R. ferrugineus homogenate from the fourth midgut instar was tested for activity. Ten larvae of the fourth midgut were carefully taken out, dissected, and periodically washed with 0.9% (w/v) NaCl solution, assay buffer containing 50 mM HEPS, 5 mM DTT, and 0.1% Triton X-100 (v/v) (pH 8.0, 500 µL) was used to homogenize the samples. The homogenates were spun using a cooling Sigma 3k30 centrifuge for 30 min at 5000 rpm. […] Before introducing 100 µL of the substrate, 10 µL of the supernatant was incubated in assay buffer (60 µL, pH = 8) at 37 °C for 30 min. Enzyme samples in 10 µL were incubated for 10 min with iodoacetic acid before the addition of the substrate. […] The absorbance at 520 nm was measured after spinning the reaction for 6 min at 5000 rpm. The activity in the midgut was assayed at OD520.60 min^−1 mg^−1 of protein with an ELISA rapid reader.
row,Structure (SMILES),IC50 cysteine protease (in vivo)
1,C=CCc1ccc(O)c(OC)c1 [eugenol],453.1 µg/mL

# Target: cysteine protease of R. ferrugineus midgut
# Test: Cysteine proteinase activity (in vitro)
# Format: biochemical, Rhynchophorus ferrugineus
# Details: 4th instar midgut homogenate
# Experimental: as §3
row,Structure (SMILES),IC50 cysteine protease (in vitro)
1,C=CCc1ccc(O)c(OC)c1 [eugenol],294.4 µg/mL

# Target: elastase of R. ferrugineus midgut
# Test: Serine proteinase specific activity, elastase (in vitro)
# Format: biochemical, Rhynchophorus ferrugineus
# Details: 4th instar midgut homogenate
row,Structure (SMILES),IC50 elastase (in vitro)
1,"CC12CCC(CC1)C(C)(C)O2 [1,8-cineole]",119.4 µg/mL
2,C=CCc1ccc(O)c(OC)c1 [eugenol],165.7 µg/mL

# Test system: R. ferrugineus 4th larvae
# Test: Topical application (contact insecticide) to fourth instar larvae
# Format: in vivo, Rhynchophorus ferrugineus
# Details: 4th larvae, topical; 95% confidence limits in brackets
# Experimental: as §1, §2
row,Structure (SMILES),LD50 (µg/Larvae) 95% CF
1,"CC12CCC(CC1)C(C)(C)O2 [1,8-cineole]",13.9 (12.8–14.7) µg/Larvae
2,C=C/C(C)=C/CC=C(C)C [(E)-β-ocimene],31.2 (27.4–32.8) µg/Larvae
3,C=CCc1ccc(O)c(OC)c1 [eugenol],14.2 (13.1–15.4) µg/Larvae

# Same assay, conditions: larvae
row,Structure (SMILES),LD50
1,"CC12CCC(CC1)C(C)(C)O2 [1,8-cineole]",13.9 µg/larva
2,C=CCc1ccc(O)c(OC)c1 [eugenol],14.2 µg/larva

# Same assay, conditions: larvae, topical application
row,Structure (SMILES),LD50
1,"CC12CCC(CC1)C(C)(C)O2 [1,8-cineole]",13.9 µg/larva
2,C=C/C(C)=C/CC=C(C)C [(E)-β-ocimene],31.2 µg/larva
3,C=CCc1ccc(O)c(OC)c1 [eugenol],14.2 µg/larva

# Test system: total proteases of R. ferrugineus midgut
# Test: Total protease activity in midgut of treated larvae (in vivo)
# Details: larvae treated 24 h, midgut preparation
row,Structure (SMILES),IC50 total proteases (in vivo)
1,"CC12CCC(CC1)C(C)(C)O2 [1,8-cineole]",193.1 µg/mL
2,C=C/C(C)=C/CC=C(C)C [(E)-β-ocimene],273.2 µg/mL
3,C=CCc1ccc(OC)cc1 [estragole],314.8 µg/mL
4,C=CCc1ccc(O)c(OC)c1 [eugenol],201.4 µg/mL

# Test system: elastase of R. ferrugineus midgut
# Test: Elastase activity in midgut of treated larvae (in vivo)
# Set-up: species or system Rhynchophorus ferrugineus
# Details: larvae treated 24 h, midgut preparation
row,Structure (SMILES),IC50 elastase (in vivo)
1,"CC12CCC(CC1)C(C)(C)O2 [1,8-cineole]",256.3 µg/mL
2,C=CCc1ccc(O)c(OC)c1 [eugenol],346.8 µg/mL

# Test system: trypsin proteinase of R. ferrugineus midgut
# Test: Trypsin activity in midgut of treated larvae (in vivo)
# Details: larvae treated 24 h, midgut preparation
# Experimental: We used a serine protease assay buffer and a modified version of the fast microplate method to analyze the serine proteinase’s specific activity in mixtures (150 µL) [26]. […] The sample (10 µL) was diluted using an assay buffer to 50 µL to determine the presence of trypsin proteinase, chymotrypsin proteinase, and elastase. Assay buffer was used to dilute stock substrates of BAρNA (100 mg/mL DMSO), both SAAPFρNA and SAAPLρNA (100 mg/mL DMF), to 1.0 mg/mL. To halt the reaction after 15 min of incubation at 37 °C, 50 µL of acetic acid (30%, v/v) was added. The intensity of the activity was measured using a 405 nm ELISA plate reader. A denaturation enzyme was used in place of an active enzyme in the experiment mixture. For three substrates (SAAPLρNA, BAρNA, and SAAPFρNA), activity levels of certain proteinases were assessed as OD mg^−1 protein min^−1.
# (§4) An experiment that was set up free of potential inhibitors served as a control. An ELISA plate fast reader measured the enzymes’ absorption at various wavelengths. For each inhibitor, the control enzyme’s percentage activity was assessed for each enzyme. Four instars midgut larvae were treated with previous concentrations of extracts or compounds, assessed as previously mentioned, to measure the protease activity in vivo. Larvae were subjected to extract- and compound-treated leaf discs for 24 h.
row,Structure (SMILES),IC50 trypsin proteinase (in vivo)
1,C=CCc1ccc(OC)cc1 [estragole],628.7 µg/mL
2,C=CCc1ccc(O)c(OC)c1 [eugenol],612.8 µg/mL

# Target: metalloprotease of R. ferrugineus midgut
# Test: Metalloproteinase specific activity, CEGR substrate (in vitro)
# Details: 4th instar midgut homogenate
row,Structure (SMILES),IC50 metalloprotease (in vitro)
1,"CC12CCC(CC1)C(C)(C)O2 [1,8-cineole]",708.2 µg/mL
2,C=C/C(C)=C/CC=C(C)C [(E)-β-ocimene],321.7 µg/mL
3,C=CCc1ccc(OC)cc1 [estragole],627.8 µg/mL
4,C=CCc1ccc(O)c(OC)c1 [eugenol],478.6 µg/mL

# Target: total proteases of R. ferrugineus midgut
# Test: Total proteolytic enzyme activity of 4th instar midgut homogenate, azocasein (in vitro)
# Details: not given
row,Structure (SMILES),IC50 total proteases (in vitro)
1,"CC12CCC(CC1)C(C)(C)O2 [1,8-cineole]",91.5 µg/mL
2,C=C/C(C)=C/CC=C(C)C [(E)-β-ocimene],207.4 µg/mL
3,C=CCc1ccc(OC)cc1 [estragole],254.7 µg/mL
4,C=CCc1ccc(O)c(OC)c1 [eugenol],97.6 µg/mL

# Target: trypsin proteinase of R. ferrugineus midgut
# Test: Serine proteinase specific activity, trypsin (in vitro)
# Details: 4th instar midgut homogenate
row,Structure (SMILES),IC50 trypsin proteinase (in vitro)
1,"CC12CCC(CC1)C(C)(C)O2 [1,8-cineole]",271.2 µg/mL
2,C=C/C(C)=C/CC=C(C)C [(E)-β-ocimene],157.2 µg/mL
3,C=CCc1ccc(OC)cc1 [estragole],257.5 µg/mL
4,C=CCc1ccc(O)c(OC)c1 [eugenol],247.2 µg/mL

# Test system: metalloprotease of R. ferrugineus midgut
# Test: Metalloprotease activity in midgut of treated larvae (in vivo)
# Details: larvae treated 24 h, midgut preparation
# Experimental: The ten midgut larvae from the fourth stage were neatly eliminated, dissected, and repeatedly washed with 0.9% NaCl solution. A 500 µL protease test solution, including 50 mM HEPS, 0.1% Triton X-100, and 5 mM DTT (pH 8.0), was utilized to homogenize the midgut instar. The homogenates were then centrifuged employing a Sigma 3k30 (cooling centrifuge) at 5000 rpm for 30 min to evaluate the supernatant’s enzyme activity and protein content. Before introducing CEGR (125 µL, 2% (w/v)), each experiment’s supernatant (10 µL) was incubated in an assay buffer (60 µL) at 37 °C for 20 min (pH 8). During a 10 min incubation period without a substrate, 10 µL enzyme samples were tested (20 min. for EDTA, EGTA, 1.10, Phenanthroline). After 180 min at 37 °C, 300 µL of cold TCA, 10% (v/v), was used to terminate the reaction. For the next 20 min, the mixture was spun (5000 rpm, Sigma 3K30). The absorbance was measured at 450 nm after mixing the supernatant with hydroxide solution (10 µL, 10 N) using an ELISA reader. An enzyme-free assay combination was utilized as a blank, and particular activity was evaluated utilizing the OD493 mg^−1 protein min^−1 and an enzyme-free blank specimen.
# as §4
row,Structure (SMILES),IC50 metalloprotease (in vivo)
1,"CC12CCC(CC1)C(C)(C)O2 [1,8-cineole]",1297.2 µg/mL
2,C=CCc1ccc(OC)cc1 [estragole],1014.1 µg/mL
